Read-outs that look alike come from different tables or passages of the source.

In this experiment the test system is test plant species. In words: Post-emergent herbicidal activity test (greenhouse, foliar spray, visual growth reduction). It counts as in vivo. Conditions: post-emergence, 336 h, 140 g ai/ha. The gist of the method: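 Visual scoring 14 d after treatment (0 = no injury, 100 = complete control) against nontreated and solvent-blank plants gave percent growth reduction. Foliar application used a track sprayer delivering 187 L/ha to seedlings at first or second true leaf stage, grown at 23–29 °C day, ~15 h photoperiod.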

Where [1] appears, read: ECHCG: barnyardgrass (Echinochloa crus-galli), 14 days after application, read-out: Visual Growth Reduction (%) 14 Days After Application, ECHCG.
Where [2] appears, read: IPOHE: ivy-leaf morning glory (Ipomoea hederacea), 14 days after application, read-out: Visual Growth Reduction (%) 14 Days After Application, IPOHE.
The mark [3] stands for this setting: KCHSC: kochia (Bassia scoparia), 14 days after application, read-out: Visual Growth Reduction (%) 14 Days After Application, KCHSC.
Where [4] appears, read: ORYSA: rice (Oryza sativa), 14 days after application, read-out: Visual Growth Reduction (%) 14 Days After Application, ORYSA.
[5] abbreviates: SETFA: giant foxtail (Setaria faberi), 14 days after application, read-out: Visual Growth Reduction (%) 14 Days After Application, SETFA.
[6] abbreviates: SORVU: grain sorghum (Sorghum vulgare), 14 days after application, read-out: Visual Growth Reduction (%) 14 Days After Application, SORVU.
[7] abbreviates: STEME: common chickweed (Stellaria media), 14 days after application, read-out: Visual Growth Reduction (%) 14 Days After Application, STEME.
Setting [8] is: TRZAS: wheat, spring (Triticum aestivum), 14 days after application, read-out: Visual Growth Reduction (%) 14 Days After Application, TRZAS.
[9] abbreviates: blackgrass (Alopecurus myosuroides), 14 Days After Application, read-out: Visual Growth Reduction (%) ALOMY.
The mark [10] stands for this setting: canada thistle (Cirsium arvense), 14 Days After Application, read-out: Visual Growth Reduction (%) CIRAR.
Where [11] appears, read: crabgrass (Digitaria sanguinalis), 14 Days After Application, read-out: Visual Growth Reduction (%) DIGSA.
[12] abbreviates: lambsquarters (Chenopodium album), 14 Days After Application, read-out: Visual Growth Reduction (%) CHEAL.
Setting [13] is: redroot pigweed (Amaranthus retroflexus), 14 Days After Application, read-out: Visual Growth Reduction (%) AMARE.
The mark [14] stands for this setting: wild oat (Avena fatua), 14 Days After Application, read-out: Visual Growth Reduction (%) AVEFA.
[15] abbreviates: yellow nutsedge (Cyperus esculentus), 14 Days After Application, read-out: Visual Growth Reduction (%) CYPES.

For `O=C(O)c1nc(-c2cc(F)c(C(F)(F)F)cc2Cl)c(F)cc1Cl` [F254, 3-Chloro-6-(2-chloro-5-fluoro-4-(trifluoromethyl)phenyl)-5-fluoropicolinic acid], the pest or weed control at 140 g/ha under setting [1] is 95 to 100%; the pest or weed control at 140 g/ha under setting [2] was 95 to 100%; the pest or weed control at 140 g/ha under setting [3] was in the range of 85 to 94%; the pest or weed control at 140 g/ha under setting [4] fell in the range of 75 to 84%; the pest or weed control at 140 g/ha under setting [5] fell in the range of 95 to 100%; the pest or weed control at 140 g/ha under setting [6] was in the range of 95 to 100%. In addition, the pest or weed control at 140 g/ha is, setting by setting: under setting [7], 95 to 100%; under setting [8], 95 to 100%; under setting [9], 85 to 94%; under setting [10], 95 to 100%; under setting [11], 95 to 100%; under setting [12], 95 to 100%. Also, the pest or weed control at 140 g/ha reads like this: under setting [13], 95 to 100%; under setting [14], 95 to 100%; under setting [15], 60 to 74%.

Take `O=C(O)c1nc(-c2cccc3c2OC(F)(F)O3)ccc1Cl` [F255, 3-Chloro-6-(2,2-difluorobenzo[d][1,3]dioxol-4-yl)picolinic acid]: the pest or weed control at 140 g/ha reads like this: under setting [1], 0 to 29%; under setting [2], 0 to 29%; under setting [3], 0 to 29%; under setting [4], 0 to 29%; under setting [5], 0 to 29%; under setting [6], 0 to 29%. The pest or weed control at 140 g/ha fell in the range of 0 to 29% under setting [7]; 0 to 29% under setting [8]; 0 to 29% under setting [9]; 0 to 29% under setting [10]; 0 to 29% under setting [11]; 0 to 29% under setting [12]. For the same compound, the pest or weed control at 140 g/ha is, setting by setting: under setting [13], 0 to 29%; under setting [14], 0 to 29%; under setting [15], 0 to 29%.

Turning to `COC(=O)c1nc(-c2cccc3c2OC(F)(F)O3)c(F)cc1Cl` [F256, Methyl 3-chloro-6-(2,2-difluorobenzo[d][1,3]dioxol-4-yl)-5-fluoropicolinate], the pest or weed control at 140 g/ha is, setting by setting: under setting [1], 0 to 29%; under setting [2], 0 to 29%; under setting [3], 0 to 29%; under setting [4], 0 to 29%; under setting [5], 0 to 29%; under setting [6], 0 to 29%. Moreover, the pest or weed control at 140 g/ha was in the range of 0 to 29% under setting [7]; 0 to 29% under setting [8]; 0 to 29% under setting [9]; 0 to 29% under setting [10]; 0 to 29% under setting [11]; 0 to 29% under setting [12]. For the same compound, the pest or weed control at 140 g/ha by setting is: under setting [13], 0 to 29%; under setting [14], 0 to 29%; under setting [15], 0 to 29%.

In the case of `COC(=O)c1nc(-c2cc(Br)c(C(F)(F)F)cc2Cl)c(Cl)cc1Cl` [F257, Methyl 6-(5-bromo-2-chloro-4-(trifluoromethyl)phenyl)-3,5-dichloropicolinate], the pest or weed control at 140 g/ha fell in the range of 0 to 29% under setting [1]; 85 to 94% under setting [2]; 0 to 29% under setting [3]; 0 to 29% under setting [4]; 0 to 29% under setting [5]; 0 to 29% under setting [6]. Moreover, the pest or weed control at 140 g/ha fell in the range of 0 to 29% under setting [7]; 0 to 29% under setting [8]; 0 to 29% under setting [9]; 0 to 29% under setting [10]; 0 to 29% under setting [11]; 75 to 84% under setting [12]. For the same compound, the pest or weed control at 140 g/ha under setting [13] was 0 to 29%, the pest or weed control at 140 g/ha under setting [14] fell in the range of 0 to 29% and the pest or weed control at 140 g/ha under setting [15] is 0 to 29%.

`COC(=O)c1nc(-c2ccc3c(c2)OC(F)(F)O3)c(F)cc1Cl` [F258, Methyl 3-chloro-6-(2,2-difluorobenzo[d][1,3]dioxol-5-yl)-5-fluoropicolinate]: the pest or weed control at 140 g/ha was in the range of 0 to 29% under setting [1]; 95 to 100% under setting [2]; 0 to 29% under setting [3]; 0 to 29% under setting [4]; 0 to 29% under setting [5]; 75 to 84% under setting [6]. In addition, the pest or weed control at 140 g/ha fell in the range of 0 to 29% under setting [7]; 0 to 29% under setting [8]; 0 to 29% under setting [9]; 0 to 29% under setting [10]; 85 to 94% under setting [11]; 75 to 84% under setting [12]. The pest or weed control at 140 g/ha was in the range of 60 to 74% under setting [13], 0 to 29% under setting [14] and 30 to 44% under setting [15].

For the compound `Cc1cc(C(F)(F)F)cc(Cl)c1-c1ccc(Cl)c(C(=O)O)n1` [F259, 3-Chloro-6-(2-chloro-6-methyl-4-(trifluoromethyl)phenyl)picolinic acid], the pest or weed control at 140 g/ha runs as follows: under setting [1], 45 to 59%; under setting [2], 95 to 100%; under setting [3], 60 to 74%; under setting [4], 0 to 29%; under setting [5], 75 to 84%; under setting [6], 85 to 94%. The pest or weed control at 140 g/ha was 0 to 29% under setting [7]; 45 to 59% under setting [8]; 0 to 29% under setting [9]; 75 to 84% under setting [10]; 60 to 74% under setting [11]; 75 to 84% under setting [12]. For the same compound, the pest or weed control at 140 g/ha reads like this: under setting [13], 95 to 100%; under setting [14], 0 to 29%; under setting [15], 0 to 29%.

Take `COC(=O)c1nc(-c2ccc3ccsc3c2F)ccc1Cl` [F260, Methyl 3-chloro-6-(7-fluorobenzo[b]thiophen-6-yl) picolinate]: the pest or weed control at 140 g/ha by setting is: under setting [1], 0 to 29%; under setting [2], 0 to 29%; under setting [3], 0 to 29%; under setting [4], 0 to 29%; under setting [5], 0 to 29%; under setting [6], 0 to 29%. Further, the pest or weed control at 140 g/ha reads like this: under setting [7], 0 to 29%; under setting [8], 0 to 29%; under setting [9], 0 to 29%; under setting [10], 0 to 29%; under setting [11], 0 to 29%; under setting [12], 0 to 29%. The pest or weed control at 140 g/ha is 0 to 29% under setting [13], 0 to 29% under setting [14] and 0 to 29% under setting [15].

As for `COC(=O)c1nc(-c2cc3nonc3cc2Cl)ccc1Cl` [F261, Methyl 3-chloro-6-(6-chlorobenzo[c][1,2,5]oxadiazol-5-yl)picolinate], the pest or weed control at 140 g/ha lay in the range of 0 to 29% under setting [1]; 75 to 84% under setting [2]; 0 to 29% under setting [3]; 0 to 29% under setting [4]; 0 to 29% under setting [5]; 0 to 29% under setting [6]. Also, the pest or weed control at 140 g/ha runs as follows: under setting [7], 0 to 29%; under setting [8], 0 to 29%; under setting [9], 0 to 29%; under setting [10], 30 to 44%; under setting [11], 60 to 74%; under setting [12], 60 to 74%. Moreover, the pest or weed control at 140 g/ha by setting is: under setting [13], 0 to 29%; under setting [14], 0 to 29%; under setting [15], 0 to 29%.

For the compound `COC(=O)c1nc(-c2ccc3ncoc3c2)ccc1Cl` [F262, Methyl 6-(benzo[d]oxazol-6-yl)-3-chloropicolinate], the pest or weed control at 140 g/ha by setting is: under setting [1], 0 to 29%; under setting [2], 30 to 44%; under setting [3], 0 to 29%; under setting [4], 0 to 29%; under setting [5], 0 to 29%; under setting [6], 0 to 29%. Further, the pest or weed control at 140 g/ha was 0 to 29% under setting [7]; 0 to 29% under setting [8]; 0 to 29% under setting [9]; 0 to 29% under setting [10]; 0 to 29% under setting [11]; 30 to 44% under setting [12]. Besides, the pest or weed control at 140 g/ha by setting is: under setting [13], 0 to 29%; under setting [14], 0 to 29%; under setting [15], 0 to 29%.

The values are drawn from patent publication US20230017045A1, “PYRIDINE AND PYRIMIDINE CARBOXYLATE HERBICIDES AND METHODS OF USE THEREOF” (Dow AgroSciences LLC, priority 2017, published 2023).
